Series [1] can be described thus: Compound toxicity, ATPLite total ATP levels. The class given is cell-based. To be noted: human, HepG2 cells; concentration reducing total ATP levels by 50% relative to no drug controls; ATPLite three days after compound addition. Here is the method:
Compound toxicity is evaluated by seeding cells at 15,000 cells/well and treating with compound as described above.
(In general: Cellular ATP, detected with luciferase, serves as a proxy for viable cell number.)

The next series has as its system HBV. Nature of the series: HepAD38 anti-HBV assay: reduction of viral product accumulation (virion DNA qPCR, HBsAg/HBeAg ELISA). The class given is cell-based. To be noted: Hepatitis B virus, 120 h; HepAD38 cells; concentration reducing viral product accumulation by 50% relative to no drug controls; harvest five days after compound addition; read-out: HepAD38 EC50. The method, boiled down:
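Tetracycline-free HepAD38 cells treated 5 days with compound (1:200 DMSO dilution), or 8 days with media and compound refreshed on d2 and d5. Virion DNA quantified by qPCR; HBsAg or HBeAg by ELISA. EC50 is the concentration reducing viral product accumulation 50% versus no-drug controls.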
Background: Quantitative PCR measures a nucleic acid by following its amplification.

What is called CC50 is the concentration at which the toxic effect on the cells reaches its halfway point. The term EC50 denotes the concentration needed to bring the measured effect to its halfway point. As for `O=S(=O)(N[C@H]1CC2=C(c3ccn(C(F)F)n3)[C@H](c3ccc(F)cc3Cl)N=C(c3nccs3)N2C1)N1CCC(O)(C2CCCC2)CC1` [Example 267], the CC50 at 3 days in series [1] is over 25 µM. Also, the EC50 with HBV is under 0.1 µM.

On to `O=S(=O)(N[C@H]1CC2=C(c3ccn(C(F)F)n3)[C@H](c3ccc(F)cc3Cl)N=C(c3nccs3)N2C1)N1CC(O)(c2ccccn2)C1` [Example 269], for which the CC50 at 3 days in series [1] was over 25 µM. For the same compound, the EC50 in the series on HBV was under 0.1 µM.

As to `O=S(=O)(N[C@H]1CC2=C(c3ccn(C(F)F)n3)[C@H](c3ccc(F)cc3Cl)N=C(c3nccs3)N2C1)N1CCC(O)(C2CC2)CC1` [Example 270], in series [1], the CC50 at 3 days is under 10 µM. The EC50 in the series on HBV was under 0.1 µM.

In turn, `O=S(=O)(N[C@H]1CC2=C(c3ccn(C(F)F)n3)[C@H](c3ccc(F)cc3Cl)N=C(c3nccs3)N2C1)N1CCCC1` [Example 271] had a cytotoxic concentration (CC50) at 3 days in series [1] of 10 to 25 µM. Besides, the EC50 with HBV is under 0.1 µM.

`O=S(=O)(N[C@H]1CC2=C(c3ccn(C(F)F)n3)[C@H](c3ccc(F)cc3Cl)N=C(c3nccs3)N2C1)N1CC2CC2C1` (some centres unmarked) [Example 273] yielded a CC50 at 3 days in series [1] of under 10 µM. Further, the EC50 with HBV was under 0.1 µM.

Regarding `O=S(=O)(N[C@H]1CC2=C(c3ccn(C(F)F)n3)[C@H](c3ccc(F)cc3Cl)N=C(c3nccs3)N2C1)N1C[C@@H](F)[C@@H](F)C1` [Example 274], the half-maximal cytotoxic concentration (CC50) at 3 days in series [1] was under 10 µM. Also, the EC50 with HBV was under 0.1 µM.

In series [1], `O=S(=O)(N[C@H]1CC2=C(c3ccn(C(F)F)n3)[C@H](c3ccc(F)cc3Cl)N=C(c3nccs3)N2C1)N1C[C@H](F)[C@@H](F)C1` [Example 275] returned a CC50 at 3 days of 10 to 25 µM. The EC50 with HBV is under 0.1 µM.

Turning to `O=S(=O)(N[C@H]1CC2=C(c3ccn(C(F)F)n3)[C@H](c3ccc(F)cc3Cl)N=C(c3nccs3)N2C1)N1CCC(F)(F)C1` [Example 276], in series [1], the CC50 at 3 days was under 10 µM. For the same compound, in the series on HBV, the half-maximal effective concentration (EC50) was under 0.1 µM.

With `O=S(=O)(CCCCO)N[C@H]1CC2=C(c3ccn(C(F)F)n3)[C@H](c3ccc(F)cc3Cl)N=C(c3nccs3)N2C1` [Example 280], in series [1], the CC50 at 3 days was over 25 µM. Also, the EC50 with HBV is under 0.1 µM.

In series [1], `CC1(O)CCN(S(=O)(=O)N[C@H]2CC3=C(c4ccn(C(F)F)n4)[C@H](c4ccc(F)cc4Cl)N=C(c4nccs4)N3C2)C1` (some centres unmarked) [Example 282] registered a CC50 at 3 days of over 25 µM. Moreover, the EC50 in the series on HBV is under 0.1 µM.

Regarding `O=S(=O)(N[C@H]1CC2=C(c3ccn(C(F)F)n3)[C@H](c3ccc(F)cc3Cl)N=C(c3nccs3)N2C1)N1CCCCC12CCC2` [Example 285], the CC50 at 3 days in series [1] was over 25 µM. Further, the EC50 in the series on HBV is under 0.1 µM.

On to `O=S(=O)(N[C@H]1CC2=C(c3ccn(C(F)F)n3)[C@H](c3ccc(F)cc3Cl)N=C(c3nccs3)N2C1)N1CCC[C@@H]1C(F)(F)F` [Example 287], for which the CC50 at 3 days in series [1] is 10 to 25 µM. Further, the EC50 with HBV was under 0.1 µM.

As for `CC(C)(O)[C@@H]1CCCN1S(=O)(=O)N[C@H]1CC2=C(c3ccn(C(F)F)n3)[C@H](c3ccc(F)cc3Cl)N=C(c3nccs3)N2C1` [Example 289], the 50% cytotoxic concentration (CC50) at 3 days in series [1] is over 25 µM. For the same compound, in the series on HBV, the EC50 was under 0.1 µM.

Compound `CS(=O)(=O)NC1CCN(S(=O)(=O)N[C@H]2CC3=C(c4ccn(C(F)F)n4)[C@H](c4ccc(F)cc4Cl)N=C(c4nccs4)N3C2)C1` (some centres unmarked) [Example 290] gave a CC50 at 3 days in series [1] of over 25 µM. Also, in the series on HBV, the EC50 is under 0.1 µM.

As for `O=C1CCCN1C1CCN(S(=O)(=O)N[C@H]2CC3=C(c4ccn(C(F)F)n4)[C@H](c4ccc(F)cc4Cl)N=C(c4nccs4)N3C2)CC1` [Example 293], the cytotoxic concentration (CC50) at 3 days in series [1] was over 25 µM. Besides, the EC50 in the series with HBV is under 0.1 µM.

In series [1], `O=C1NCCN1C1CCN(S(=O)(=O)N[C@H]2CC3=C(c4ccn(C(F)F)n4)[C@H](c4ccc(F)cc4Cl)N=C(c4nccs4)N3C2)CC1` [Example 294] came in with a CC50 at 3 days of over 25 µM. Further, the EC50 in the series on HBV was under 0.1 µM.

In the case of `O=S(=O)(N[C@H]1CC2=C(c3ccn(C(F)F)n3)[C@H](c3ccc(F)cc3Cl)N=C(c3nccs3)N2C1)N1CCCC[C@@H]1C(F)(F)F` [Example 301], the CC50 at 3 days in series [1] was over 25 µM. Besides, the EC50 in the series on HBV is under 0.1 µM.

`O=C1OCCN1C1CCN(S(=O)(=O)N[C@H]2CC3=C(c4ccn(C(F)F)n4)[C@H](c4ccc(F)cc4Cl)N=C(c4nccs4)N3C2)CC1` [Example 302] showed a CC50 at 3 days in series [1] of over 25 µM. The EC50 in the series with HBV was under 0.1 µM.

Regarding `O=S(=O)(N[C@H]1CC2=C(c3ccn(C(F)F)n3)[C@H](c3ccc(F)cc3Cl)N=C(c3nccs3)N2C1)N1CCC(O)(c2ncccn2)CC1` [Example 303], the CC50 at 3 days in series [1] is over 25 µM. Moreover, the EC50 with HBV was under 0.1 µM.

Take `Cn1ccc(C2(O)CCN(S(=O)(=O)N[C@H]3CC4=C(c5ccn(C(F)F)n5)[C@H](c5ccc(F)cc5Cl)N=C(c5nccs5)N4C3)CC2)n1` [Example 304]: the CC50 at 3 days in series [1] is over 25 µM. In addition, the EC50 with HBV was under 0.1 µM.

Consider `O=S(=O)(NCCc1ccccn1)N[C@H]1CC2=C(c3ccn(C(F)F)n3)[C@H](c3ccc(F)cc3Cl)N=C(c3nccs3)N2C1` [Example 309], for which the 50% cytotoxic concentration (CC50) at 3 days in series [1] was over 25 µM. The EC50 in the series with HBV is under 0.1 µM.

`CS(=O)(=O)c1ccc(S(=O)(=O)N[C@H]2CC3=C(c4ccn(C(F)F)n4)[C@H](c4ccc(F)cc4Cl)N=C(c4nccs4)N3C2)cc1` [Example 323] showed a CC50 at 3 days in series [1] of 10 to 25 µM. In the series on HBV, the half-maximal effective concentration (EC50) was under 0.1 µM.

In turn, `O=S(=O)(N[C@H]1CC2=C(c3ccn(C(F)F)n3)[C@H](c3ccc(F)cc3Cl)N=C(c3nccs3)N2C1)C1CCC1` [Example 324] returned a half-maximal cytotoxic concentration (CC50) at 3 days in series [1] of 10 to 25 µM. In addition, the EC50 in the series on HBV was under 0.1 µM.

In series [1], `O=Cc1ccc(S(=O)(=O)N[C@H]2CC3=C(c4ccn(C(F)F)n4)[C@H](c4ccc(F)cc4Cl)N=C(c4nccs4)N3C2)cc1` [Example 332] registered a CC50 at 3 days of over 25 µM. Besides, the EC50 in the series on HBV is under 0.1 µM.

Compound `O=S(=O)(N[C@H]1CC2=C(c3ccn(C(F)F)n3)[C@H](c3ccc(F)cc3Cl)N=C(c3nccs3)N2C1)c1ccc(C(O)c2ccccn2)cc1` (some centres unmarked) [Example 334] yielded a CC50 at 3 days in series [1] of under 10 µM. In the series on HBV, the EC50 was under 0.1 µM.

For the compound `CS(=O)(=O)CS(=O)(=O)N[C@H]1CC2=C(c3ccn(C(F)F)n3)[C@H](c3ccc(F)cc3Cl)N=C(c3nccs3)N2C1` [Example 335], in series [1], the 50% cytotoxic concentration (CC50) at 3 days is over 25 µM. Besides, the EC50 with HBV is under 0.1 µM.

`CS(=O)(=O)c1cccc(S(=O)(=O)N[C@H]2CC3=C(c4ccn(C(F)F)n4)[C@H](c4ccc(F)cc4Cl)N=C(c4nccs4)N3C2)c1` [Example 336] came in with a CC50 at 3 days in series [1] of over 25 µM. Further, the EC50 with HBV was under 0.1 µM.

`CS(=O)(=O)C1CN(S(=O)(=O)N[C@H]2CC3=C(c4ccn(C(F)F)n4)[C@H](c4ccc(F)cc4Cl)N=C(c4nccs4)N3C2)C1` [Example 337] yielded a CC50 at 3 days in series [1] of over 25 µM. Also, the EC50 in the series on HBV was under 0.1 µM.

In the case of `O=S(=O)(N[C@H]1CC2=C(c3ccn(C(F)F)n3)[C@H](c3ccc(F)cc3Cl)N=C(c3nccs3)N2C1)c1cccc(C(O)c2ccccn2)c1` (some centres unmarked) [Example 339], the CC50 at 3 days in series [1] is over 25 µM. Besides, the EC50 in the series with HBV was under 0.1 µM.

Consider `O=S(=O)(N[C@H]1CC2=C(c3ccn(C(F)F)n3)[C@H](c3ccc(F)cc3Cl)N=C(c3nccs3)N2C1)c1ccc(S(=O)(=O)C(F)F)cc1` [Example 340], for which the CC50 at 3 days in series [1] is over 25 µM. Further, the EC50 with HBV is under 0.1 µM.

`CC(C)[C@H](NS(=O)(=O)N[C@H]1CC2=C(c3ccn(C(F)F)n3)[C@H](c3ccc(F)cc3Cl)N=C(c3nccs3)N2C1)c1ccccn1` [Example 342] displayed a CC50 at 3 days in series [1] of over 25 µM. Moreover, in the series on HBV, the EC50 was under 0.1 µM.

(Values after patent US11472808B2, “Substituted pyrrolo[1,2-c]pyrimidines as hepatitis B antiviral agents” (Enanta Pharmaceuticals, Inc., priority 2019, dated 2022).)
